Test results as given in patent US10363251B2, “(+)-morphinans as antagonists of toll-like receptor 9 and therapeutic uses thereof” (Mallinckrodt LLC, priority 2009, dated 2019).

Assays:
Type in all cases: cell-based
TLR2 = target: T1, TLR2 (Homo sapiens, UniProt O60603); assay: TLR2 antagonist screening, NF-κB-inducible SEAP reporter in HEK293 cells; settings: for Average % Inhibition at TLR2: 10 μM, stimulated with HKLM at 10^8 cell/ml
T1 construct: expressed in transfected cells; host or cells: HEK293
Protocol: (§1) Stimulation of TLRs 2, 3, 4, 5, 7, 8, and 9 was determined by assessing activation of the transcription factor NF-κB in HEK293 cells that were engineered to express the corresponding receptors. Assessment of TLR stimulation was based on the use of an NF-κB-inducible secreted alkaline phosphatase (SEAP) reporter system in which the SEAP reporter was under the control of a promoter inducible by NF-κB. Thus, the degree of activation of TLRs can be indirectly quantified spectrophotometrically by measuring the amount of the SEAP reporter that is produced.
(§2) The appropriate TLR-expressing cells were plated in Growth Medium in a 96-well plate (25,000-50,000 cells/well). The cells were stimulated with the appropriate positive control ligand or no ligand was added (negative control). The positive control ligands were: HKLM was used to stimulate TLR2; poly(I:C) was used to stimulate TLR3; LPS was used to stimulate TLR4; Flagellin was used to stimulate TLR5; CL097 was used to stimulate TLR7; CL075 was used to stimulate TLR8; CpG oligodeoxynucleotide (ODN) 2006 was used to stimulate TLR9. To test whether (+)-morphinans could block that activation of the TLR, the cells were pretreated with an antagonist for 30 minutes prior to addition of the positive control ligand. For this, 20 μL of the stock test compound solution (100 μM in H2O) was added to give a total volume of 200 μL. […] After a 16-20 hr incubation period at 37° C. in a CO2 incubator, 20 μL of the cell culture supernatant was added to 180 μL of QUANTI-Blue™ Media (InvivoGen, San Diego, Calif.), and the resulting solutions were incubated at 37° C. for an additional 1-3 hours according to the manufacturer's instructions. The OD's of the samples were then read at 650 nm on a Beckman Coulter AD 340C Absorbance Detector.

TLR4 = target: T2, TLR4 (Homo sapiens, UniProt O00206); assay: TLR4 antagonist screening, NF-κB-inducible SEAP reporter in HEK293 cells; settings: for Average % Inhibition at TLR4: 10 μM, stimulated with LPS at 100 ng/ml
T2 construct: expressed in transfected cells; host or cells: HEK293
Protocol: as §1, §2

TLR5 = target: T3, TLR5 (Homo sapiens, UniProt O60602); assay: TLR5 antagonist screening, NF-κB-inducible SEAP reporter in HEK293 cells; settings: for Average % Inhibition at TLR5: 10 μM, stimulated with Flagellin at 100 ng/ml
T3 construct: expressed in transfected cells; host or cells: HEK293
Protocol: as §1, §2

TLR9 = target: T4, TLR9 (Homo sapiens, UniProt Q9NR96); assay: TLR9 antagonist screening, NF-κB-inducible SEAP reporter in HEK293 cells; settings: for Average % Inhibition at TLR9: 10 μM, stimulated with CpG ODN 2006 at 100 ng/ml
T4 construct: expressed in transfected cells; host or cells: HEK293
T4 sequence (Q9NR96 26-1032): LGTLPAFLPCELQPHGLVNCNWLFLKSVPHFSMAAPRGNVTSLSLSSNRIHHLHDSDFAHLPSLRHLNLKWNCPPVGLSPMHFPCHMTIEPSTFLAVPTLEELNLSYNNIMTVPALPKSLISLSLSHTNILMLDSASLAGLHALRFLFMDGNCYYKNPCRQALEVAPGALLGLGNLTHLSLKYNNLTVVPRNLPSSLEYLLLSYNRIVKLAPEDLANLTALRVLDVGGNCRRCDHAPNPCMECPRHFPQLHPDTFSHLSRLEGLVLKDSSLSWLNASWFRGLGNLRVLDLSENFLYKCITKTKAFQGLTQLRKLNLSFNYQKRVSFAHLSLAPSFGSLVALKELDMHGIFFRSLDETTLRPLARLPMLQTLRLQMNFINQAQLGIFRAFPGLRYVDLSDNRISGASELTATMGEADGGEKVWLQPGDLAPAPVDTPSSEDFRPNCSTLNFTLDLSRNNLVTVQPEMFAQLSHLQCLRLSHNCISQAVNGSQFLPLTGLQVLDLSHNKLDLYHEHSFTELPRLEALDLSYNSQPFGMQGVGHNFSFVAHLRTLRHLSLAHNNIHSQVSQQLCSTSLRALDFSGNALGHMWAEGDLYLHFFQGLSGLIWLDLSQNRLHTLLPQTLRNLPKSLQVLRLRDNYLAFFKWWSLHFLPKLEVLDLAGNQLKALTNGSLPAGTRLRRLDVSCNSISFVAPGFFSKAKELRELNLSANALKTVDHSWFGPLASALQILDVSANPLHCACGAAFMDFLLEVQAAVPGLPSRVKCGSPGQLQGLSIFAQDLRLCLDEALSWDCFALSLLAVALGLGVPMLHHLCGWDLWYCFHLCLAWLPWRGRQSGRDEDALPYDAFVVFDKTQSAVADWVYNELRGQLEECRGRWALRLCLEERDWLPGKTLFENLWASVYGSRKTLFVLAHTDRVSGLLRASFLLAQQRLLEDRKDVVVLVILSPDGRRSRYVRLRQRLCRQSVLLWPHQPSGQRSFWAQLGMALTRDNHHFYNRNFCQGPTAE
Protocol: as §1, §2

T1 sequence (O60603 21-784, species assumed): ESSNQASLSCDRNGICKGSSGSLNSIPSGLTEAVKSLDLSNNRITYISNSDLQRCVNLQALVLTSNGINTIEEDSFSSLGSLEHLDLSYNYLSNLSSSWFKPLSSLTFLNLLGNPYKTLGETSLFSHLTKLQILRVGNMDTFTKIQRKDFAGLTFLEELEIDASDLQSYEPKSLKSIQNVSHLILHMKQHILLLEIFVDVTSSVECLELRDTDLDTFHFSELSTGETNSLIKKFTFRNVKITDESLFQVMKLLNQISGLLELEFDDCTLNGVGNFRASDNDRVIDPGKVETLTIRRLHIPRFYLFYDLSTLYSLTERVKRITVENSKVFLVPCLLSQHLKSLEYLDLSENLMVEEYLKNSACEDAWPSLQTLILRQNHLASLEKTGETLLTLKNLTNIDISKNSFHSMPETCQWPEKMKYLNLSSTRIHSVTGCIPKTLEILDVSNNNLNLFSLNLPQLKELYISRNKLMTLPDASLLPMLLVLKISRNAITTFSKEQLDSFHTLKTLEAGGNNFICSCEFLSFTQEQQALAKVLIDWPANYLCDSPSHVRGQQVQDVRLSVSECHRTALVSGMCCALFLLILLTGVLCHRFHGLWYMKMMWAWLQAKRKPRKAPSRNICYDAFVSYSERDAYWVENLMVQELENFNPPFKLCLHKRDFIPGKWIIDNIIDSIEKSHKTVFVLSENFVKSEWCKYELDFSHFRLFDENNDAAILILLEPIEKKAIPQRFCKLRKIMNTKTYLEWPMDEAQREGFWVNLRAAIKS
T3 sequence (O60602 21-858, species assumed): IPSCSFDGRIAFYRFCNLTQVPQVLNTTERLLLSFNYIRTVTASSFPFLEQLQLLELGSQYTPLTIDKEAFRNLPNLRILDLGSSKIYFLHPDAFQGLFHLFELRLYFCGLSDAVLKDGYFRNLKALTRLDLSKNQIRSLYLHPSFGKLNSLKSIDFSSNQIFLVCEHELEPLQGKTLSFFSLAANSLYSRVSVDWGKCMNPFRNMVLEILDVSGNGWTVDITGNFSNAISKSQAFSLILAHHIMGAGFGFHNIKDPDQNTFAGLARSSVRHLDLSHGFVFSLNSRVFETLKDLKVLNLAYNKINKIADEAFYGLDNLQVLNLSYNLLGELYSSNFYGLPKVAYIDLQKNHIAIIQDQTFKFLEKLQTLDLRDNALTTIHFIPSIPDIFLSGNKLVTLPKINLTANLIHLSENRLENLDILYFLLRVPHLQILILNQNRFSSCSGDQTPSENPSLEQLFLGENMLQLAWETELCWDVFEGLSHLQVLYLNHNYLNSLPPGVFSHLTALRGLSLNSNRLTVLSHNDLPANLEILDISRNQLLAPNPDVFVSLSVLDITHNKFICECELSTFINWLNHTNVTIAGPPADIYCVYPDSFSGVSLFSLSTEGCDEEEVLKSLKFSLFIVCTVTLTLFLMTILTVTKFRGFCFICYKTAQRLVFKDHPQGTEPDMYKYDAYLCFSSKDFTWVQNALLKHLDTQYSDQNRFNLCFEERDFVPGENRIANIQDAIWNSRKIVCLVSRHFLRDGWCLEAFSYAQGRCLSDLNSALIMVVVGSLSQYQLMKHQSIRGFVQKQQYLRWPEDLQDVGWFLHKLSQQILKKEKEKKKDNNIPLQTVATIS
T2 sequence (O00206 24-839, species assumed): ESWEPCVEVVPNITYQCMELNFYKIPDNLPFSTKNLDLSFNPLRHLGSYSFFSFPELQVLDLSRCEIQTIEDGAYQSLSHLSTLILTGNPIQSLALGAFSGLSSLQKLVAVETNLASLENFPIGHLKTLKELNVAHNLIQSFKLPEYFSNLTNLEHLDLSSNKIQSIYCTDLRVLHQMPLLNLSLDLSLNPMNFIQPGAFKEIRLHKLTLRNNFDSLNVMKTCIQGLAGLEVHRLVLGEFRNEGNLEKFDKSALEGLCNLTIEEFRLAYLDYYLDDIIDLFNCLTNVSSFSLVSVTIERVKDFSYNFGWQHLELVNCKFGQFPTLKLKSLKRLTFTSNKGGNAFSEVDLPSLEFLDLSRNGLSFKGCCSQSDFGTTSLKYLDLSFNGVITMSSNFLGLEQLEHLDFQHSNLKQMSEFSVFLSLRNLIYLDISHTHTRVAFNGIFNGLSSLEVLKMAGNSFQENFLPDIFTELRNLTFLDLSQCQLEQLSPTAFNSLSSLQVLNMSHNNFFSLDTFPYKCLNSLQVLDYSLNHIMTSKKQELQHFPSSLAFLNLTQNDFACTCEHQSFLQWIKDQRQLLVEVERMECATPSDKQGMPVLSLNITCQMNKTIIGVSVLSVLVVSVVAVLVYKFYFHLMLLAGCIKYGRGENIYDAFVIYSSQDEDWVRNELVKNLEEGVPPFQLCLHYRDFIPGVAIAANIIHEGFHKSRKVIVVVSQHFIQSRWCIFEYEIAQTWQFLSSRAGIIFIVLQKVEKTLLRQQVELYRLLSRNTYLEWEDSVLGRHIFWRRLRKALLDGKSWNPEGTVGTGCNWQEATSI
T2 sequence (Q9Y6Y9 17-160 partner limits assumed, species assumed): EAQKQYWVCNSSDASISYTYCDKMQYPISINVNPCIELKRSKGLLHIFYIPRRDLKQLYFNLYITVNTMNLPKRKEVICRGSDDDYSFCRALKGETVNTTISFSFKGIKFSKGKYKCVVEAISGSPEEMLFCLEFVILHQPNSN

Structure (SMILES) | Average % Inhibition at TLR2 (TLR2) [%] | Average % Inhibition at TLR4 (TLR4) [%] | Average % Inhibition at TLR5 (TLR5) [%] | Average % Inhibition at TLR9 (TLR9) [%] | inhibition at 10 µM (TLR2; HEK293, stimulated with HKLM at 10^8 cell/ml) [%] | inhibition at 10 µM (TLR4; HEK293, stimulated with LPS at 100 ng/ml) [%] | inhibition at 10 µM (TLR5; HEK293, stimulated with Flagellin at 100 ng/ml) [%] | inhibition at 10 µM (TLR9; HEK293, stimulated with CpG ODN 2006 at 100 ng/ml) [%]
COc1ccc2c(c1O)[C@@]13CCN(C)[C@@H](C2)[C@H]1CC(OC)C(=O)C3 (stereo partly drawn) [Dihydrosinomenine, dihydrosinomenine] | 27 | 23 | 16 | 42 | – | – | – | –
COC1=C[C@@H]2[C@@H]3Cc4ccc(OC)c(O)c4[C@]2(CCN3C)CC1=O [Sinomenine, sinomenine] | – | – | – | – | 30 | 24 | 19 | 55
C=CCN1CC[C@]23c4c5ccc(O)c4O[C@H]2C(=O)CC[C@]3(O)[C@H]1C5 [(+)-Naloxone, (+)-naloxone] | 24 | 25 | 17 | 45 | – | – | – | –
